This assay has as its target T1, human mAChR M4 (Homo sapiens, UniProt P08173).
T1 construct: expressed in transfected cells; host or cells: CHO-K1 (ATCC), stably co-expressing chimeric G protein Gqi5
T1 sequence (P08173 1-479): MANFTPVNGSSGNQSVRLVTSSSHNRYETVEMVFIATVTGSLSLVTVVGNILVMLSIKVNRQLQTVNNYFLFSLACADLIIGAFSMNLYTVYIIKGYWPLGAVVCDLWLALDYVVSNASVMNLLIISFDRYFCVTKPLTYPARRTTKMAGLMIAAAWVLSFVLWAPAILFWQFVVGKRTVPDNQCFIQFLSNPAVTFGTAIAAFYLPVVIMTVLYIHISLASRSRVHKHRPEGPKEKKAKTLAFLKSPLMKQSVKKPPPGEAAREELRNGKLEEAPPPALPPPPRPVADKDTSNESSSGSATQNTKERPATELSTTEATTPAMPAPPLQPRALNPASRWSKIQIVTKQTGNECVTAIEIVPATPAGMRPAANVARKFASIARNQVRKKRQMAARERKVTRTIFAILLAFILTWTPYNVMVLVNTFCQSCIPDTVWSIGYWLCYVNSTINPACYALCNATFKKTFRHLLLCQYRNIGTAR
The assay is described as follows: mAChR M4 cell-based functional assay (calcium mobilization, EC80 acetylcholine), human M4. As to conditions: for Emin: human M4, % ACh maximum at 30 μM. In outline: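 CHO-K1 cells stably expressing human M4 with chimeric Gqi5; intracellular calcium rise read on FDSS as fluorescence static ratio at 1 Hz. Compounds in 10-point 1:3 dilution series; IC50 taken as concentration-dependent decrease of the EC80 acetylcholine response, four-parameter logistic fit.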
On the technique in general: Calcium flux is commonly read through the fluorescence of an indicator in the cells.

The mark [1] stands for this setting: Table 10, M4/Gqi5/CHO-K1 cells, decrease of EC80 acetylcholine response.
Setting [2] is: Table 9, M4/Gqi5/CHO-K1 cells, decrease of EC80 acetylcholine response.

Data on 21 compounds can be found in patent US12577234B2, “Antagonists of the muscarinic acetylcholine receptor M4” (Vanderbilt University, priority 2017, dated 2026).

Each structure is given as a SMILES string.

As to `CC(=O)Nc1ccc(-c2ccc(O[C@H]3C[C@@H]4CN(Cc5ccc(F)cc5)C[C@@H]4C3)nn2)cc1` [Compound 131, N-[4-[6-[[(3aR,5s,6aS)-2-[(4-fluorophenyl)methyl]-3,3a,4,5,6,6a-hexahydro-1H-cyclopenta[c]pyrrol-5-yl]oxy]pyridazin-3-yl]phenyl]acetamide], where the note is “Table 10”, the “Human M4 Emin” value stood at 3%. Moreover, under setting [1], the IC50 came to 0.977 µM.

For `CC(=O)Nc1ccc(-c2cnc(N[C@H]3C[C@@H]4CN(CC5CC6C=CC5C6)C[C@@H]4C3)cn2)cc1` (stereo partly drawn) [Compound 157, N-[4-[5-[[(3aR,5s,6aS)-2-(5-bicyclo[2.2.1]hept-2-enylmethyl)-3,3a,4,5,6,6a-hexahydro-1H-cyclopenta[c]pyrrol-5-yl]amino]pyrazin-2-yl]phenyl]acetamide], the “Human M4 Emin” value (Table 10) was determined as 5%. Under setting [1], the IC50 turned out to be 0.0529 µM.

`CC(CN1C[C@H]2C[C@@H](Oc3ccc(-c4cc(F)ccc4Cl)nn3)C[C@H]2C1)C(C)(C)C` (stereo partly drawn) [Compound 55, (3aR,5r,6aS)-5-[6-(2-chloro-5-fluoro-phenyl)pyridazin-3-yl]oxy-2-(2,3,3-trimethylbutyl)-3,3a,4,5,6,6a-hexahydro-1H-cyclopenta[c]pyrrole]: the IC50 under setting [2] is 0.43 µM. In addition, the Emin (Table 9) was determined as 3.60%.

In the case of `Cc1cccnc1CN1C[C@H]2CC(CCNc3ccc(-c4c(C)cnn4C)nn3)C[C@H]2C1` (stereo partly drawn) [Compound 124, N-[2-[(3aR,6aS)-2-[(3-methyl-2-pyridyl)methyl]-3,3a,4,5,6,6a-hexahydro-1H-cyclopenta[c]pyrrol-5-yl]ethyl]-6-(2,4-dimethylpyrazol-3-yl)pyridazin-3-amine], under setting [2], the IC50 was found to be 0.0206 µM. Also, the Emin (Table 9) stood at 3.25%.

For `Cc1cnn(C)c1-c1ccc(OCC2C[C@@H]3CN(Cc4ccccn4)C[C@@H]3C2)nn1` (stereo partly drawn) [Compound 89, (3aR,6aS)-5-[[6-(2,4-dimethylpyrazol-3-yl)pyridazin-3-yl]oxymethyl]-2-(2-pyridylmethyl)-3,3a,4,5,6,6a-hexahydro-1H-cyclopenta[c]pyrrole], under setting [2], the half-inhibitory concentration (IC50) was 8.08 µM. The Emin (Table 9) turned out to be 18.1%.

Turning to `CC(C)(C)CCN1C[C@H]2C[C@H](Oc3ccc(-c4ccc(C(F)(F)F)cc4)nn3)C[C@H]2C1` [Compound 139, (3aR,5s,6aS)-2-(3,3-dimethylbutyl)-5-[6-[4-(trifluoromethyl)phenyl]pyridazin-3-yl]oxy-3,3a,4,5,6,6a-hexahydro-1H-cyclopenta[c]pyrrole], the “Human M4 Emin” value (Table 10) is given as 4%. The IC50 under setting [1] worked out at 1.56 µM.

For the compound `CC(=O)Nc1ccc(-c2ccc(O[C@H]3C[C@@H]4CN(Cc5ncccc5C)C[C@@H]4C3)nn2)cc1` [Compound 133, N-[4-[6-[[(3aR,5s,6aS)-2-[(3-methyl-2-pyridyl)methyl]-3,3a,4,5,6,6a-hexahydro-1H-cyclopenta[c]pyrrol-5-yl]oxy]pyridazin-3-yl]phenyl]acetamide], the “Human M4 Emin” value (Table 10) came out at 5%. For the same compound, the IC50 under setting [1] was found to be 1.07 µM.

Regarding `Cc1nn(C)cc1-c1ccc(NCC2C[C@@H]3CN(CC(C)C(C)(C)C)C[C@@H]3C2)nn1` (stereo partly drawn) [Compound 63, N-[[(3aR,6aS)-2-(2,3,3-trimethylbutyl)-3,3a,4,5,6,6a-hexahydro-1H-cyclopenta[c]pyrrol-5-yl]methyl]-6-(1,3-dimethylpyrazol-4-yl)pyridazin-3-amine], the IC50 under setting [2] amounted to 0.108 µM. For the same compound, the Emin (Table 9) came out at 3.46%.

On to `Clc1ccc(N[C@H]2C[C@@H]3CN(CC4CCOCC4)C[C@@H]3C2)nn1` [Compound 179, (3aR,5s,6aS)-N-(6-chloropyridazin-3-yl)-2-(tetrahydropyran-4-ylmethyl)-3,3a,4,5,6,6a-hexahydro-1H-cyclopenta[c]pyrrol-5-amine], for which, where the note is “Table 10”, the “Human M4 Emin” value turned out to be 29%. In addition, where the note is “Table 10, μM”, the IC50 is over 10 µM.

Turning to `Cc1nn(C)cc1-c1ccc(O[C@@H]2C[C@@H]3CN(CC(C)C(C)(C)C)C[C@@H]3C2)nn1` (stereo partly drawn) [Compound 46, (3aR,5r,6aS)-5-[6-(1,3-Dimethylpyrazol-4-yl)pyridazin-3-yl]oxy-2-(2,3,3-trimethylbutyl)-3,3a,4,5,6,6a-hexahydro-1H-cyclopenta[c]pyrrole], the IC50 under setting [2] came to 1.13 µM. For the same compound, for the setting “Table 9”, the Emin is reported as 4.08%.

Consider `Cc1nn(C)cc1-c1ccc(OCC2C[C@@H]3CN(CCC(C)(C)C)C[C@@H]3C2)nn1` (stereo partly drawn) [Compound 92, (3sR,6aS)-2-(3,3-dimethylbutyl)-5-[[6-(1,3-dimethylpyrazol-4-yl)pyridazin-3-yl]oxymethyl]-3,3a,4,5,6,6a-hexahydro-1H-cyclopenta[c]pyrrole], for which, under setting [2], the IC50 was 0.0583 µM. Besides, under “Table 9”, the Emin was found to be 4.01%.

In the case of `Fc1ccc(Cl)c(-c2ccc(N[C@H]3C[C@@H]4CN(Cc5ccco5)C[C@@H]4C3)nn2)c1` [Compound 176, (3aR,5s,6aS)-N-[6-(2-chloro-5-fluoro-phenyl)pyridazin-3-yl]-2-(2-furylmethyl)-3,3a,4,5,6,6a-hexahydro-1H-cyclopenta[c]pyrrol-5-amine], where the note is “Table 10”, the “Human M4 Emin” value amounted to 3%. For the same compound, under setting [1], the IC50 amounted to 0.0261 µM.

`Cc1cnn(C)c1-c1ccc(NC[C@H]2C[C@@H]3CN(CC(C)C(C)(C)C)C[C@@H]3C2)nn1` (stereo partly drawn) [Compound 65, N-[[(3aR,5s,6aS)-2-(2,3,3-trimethylbutyl)-3,3a,4,5,6,6a-hexahydro-1H-cyclopenta[c]pyrrol-5-yl]methyl]-6-(2,4-dimethylpyrazol-3-yl)pyridazin-3-amine]: under setting [2], the IC50 came out at 0.253 µM. For the same compound, under “Table 9”, the Emin was 4.16%.

Regarding `Cc1nn(C)cc1-c1cnc(N[C@H]2C[C@@H]3CN(CC4CC5C=CC4C5)C[C@@H]3C2)cn1` (stereo partly drawn) [Compound 154, (3aR,5s,6aS)-2-(5-bicyclo[2.2.1]hept-2-enylmethyl)-N-[5-(1,3-dimethylpyrazol-4-yl)pyrazin-2-yl]-3,3a,4,5,6,6a-hexahydro-1H-cyclopenta[c]pyrrol-5-amine], the “Human M4 Emin” value (Table 10) came to 4%. Besides, the IC50 under setting [1] was found to be 0.0308 µM.

In the case of `Cc1cnn(C)c1-c1ccc(OCC2C[C@@H]3CN(CCC(C)(C)C)C[C@@H]3C2)nn1` (stereo partly drawn) [Compound 78, (3aR,6aS)-2-(3,3-Dimethylbutyl)-5-[[6-(2,4-dimethylpyrazol-3-yl)pyridazin-3-yl]oxymethyl]-3,3a,4,5,6,6a-hexahydro-1H-cyclopenta[c]pyrrole], the IC50 under setting [2] came out at 0.105 µM. Also, the Emin (Table 9) came to 4.35%.

Consider `Fc1ccc(Cl)c(-c2ccc(NC[C@H]3C[C@@H]4CN(CC5CCOCC5)C[C@@H]4C3)nn2)c1` [Compound 71, N-[[(3aR,5s,6aS)-2-(tetrahydropyran-4-ylmethyl)-3,3a,4,5,6,6a-hexahydro-1H-cyclopenta[c]pyrrol-5-yl]methyl]-6-(2-chloro-5-fluoro-phenyl)pyridazin-3-amine], for which the IC50 under setting [2] turned out to be 0.364 µM. The Emin (Table 9) was determined as 3.81%.

Regarding `Fc1ccc(Cl)c(-c2ccc(OCC3C[C@@H]4CN(CC5CCOCC5)C[C@@H]4C3)nn2)c1` (stereo partly drawn) [Compound 112, (3aR,6aS)-5-[[6-(2-chloro-5-fluoro-phenyl)pyridazin-3-yl]oxymethyl]-2-(tetrahydropyran-4-ylmethyl)-3,3a,4,5,6,6a-hexahydro-1H-cyclopenta[c]pyrrole], under setting [2], the IC50 came out at 0.609 µM. Moreover, the Emin (Table 9) was found to be 4.59%.

For `Cc1cnn(C)c1-c1ccc(N[C@H]2C[C@@H]3CN(CC4CCCOC4)C[C@@H]3C2)nn1` (stereo partly drawn) [Compound 22, (3aR,5s,6aS)-N-[6-(2,4-dimethylpyrazol-3-yl)pyridazin-3-yl]-2-(tetrahydropyran-3-ylmethyl)-3,3a,4,5,6,6a-hexahydro-1H-cyclopenta[c]pyrrol-5-amine], under setting [2], the IC50 amounted to 0.0815 µM. Also, the Emin (Table 9) is 4.08%.

In the case of `Fc1ccc(Cl)c(-c2ccc(N[C@H]3C[C@@H]4CN(Cc5cccc6c5OCO6)C[C@@H]4C3)nn2)c1` [Compound 167, (3aR,5s,6aS)-2-(1,3-benzodioxol-4-ylmethyl)-N-[6-(2-chloro-5-fluoro-phenyl)pyridazin-3-yl]-3,3a,4,5,6,6a-hexahydro-1H-cyclopenta[c]pyrrol-5-amine], the “Human M4 Emin” value (Table 10) was 2%. For the same compound, the IC50 under setting [1] came to 0.0391 µM.

`Cc1cnn(C)c1-c1ccc(NCCC2C[C@@H]3CN(Cc4ccccc4)C[C@@H]3C2)nn1` (stereo partly drawn) [Compound 126, N-[2-[(3aR,6aS)-2-benzyl-3,3a,4,5,6,6a-hexahydro-1H-cyclopenta[c]pyrrol-5-yl]ethyl]-6-(2,4-dimethylpyrazol-3-yl)pyridazin-3-amine]: under setting [2], the IC50 was determined as 0.023 µM. In addition, the Emin (Table 9) is 3.89%.

Regarding `Cc1cnn(C)c1-c1ccc(NC(=O)C2CC3CN(CC4CC5C=CC4C5)CC3C2)nn1` (stereo not drawn) [Compound 77, 2-(5-bicyclo[2.2.1]hept-2-enylmethyl)-N-[6-(2,4-dimethylpyrazol-3-yl)pyridazin-3-yl]-3,3a,4,5,6,6a-hexahydro-1H-cyclopenta[c]pyrrole-5-carboxamide], the IC50 under setting [2] was 0.408 µM. Moreover, the Emin (Table 9) is given as 3.86%.

One may read the IC50 as the concentration that gives 50% inhibition.
